Assay results: PubChem BioAssay AID2305 (GlaxoSmithKline (GSK), 2010)

Test system: P. falciparum 3D7 growth, pLDH absorbance
Assay: blood-stage malaria parasite growth potency – strain 3D7, dose response (AID 2305)

Structure (SMILES)	IC50
CS(=O)(=O)c1ccc(CNCc2cccc(-c3ccc(-c4nc5ccc(C(F)(F)F)cc5[nH]4)cc3)c2)cc1	510 nM
CCN(CC)CCCCNc1cc(-c2[nH]c(C(C)(C)C)nc2-c2ccc3cc(OC)ccc3c2)ccn1	530 nM
Cc1nc2ccc(-c3nc4ccc(N)cc4[nH]3)cc2[nH]1	230 nM
O=C(N[C@@H](Cc1ccccc1)C(=O)NCc1cccc2ccccc12)c1ccc(O)c(-c2ccc(Cl)c(Cl)c2)c1	240 nM
CCCCCCN=C(N)c1ccc2nc(-c3ccc(O)cc3)[nH]c2c1	190 nM
O=S(=O)(c1ccc(OCc2ccc(Cl)cc2)cc1)c1cc2c(c(-c3ccc(F)cc3)c1)CCN(CC1CC1)CC2	1120 nM
CCCC(C)Nc1nc(C)cc(N[C@@H](CC(C)C)C(=O)NCc2cccc(F)c2)n1 (some centres not stated)	1000 nM
COc1ccccc1C1CCN(C2CCC(NC(=O)/C=C/c3cc(C(F)(F)F)ccc3F)CC2)CC1 (configuration not stated)	870 nM
NC1CCN(c2cnn(Cc3cccc(NC(=O)Nc4ccc(-c5ccccc5)cc4)c3)c(=O)c2Cl)CC1	1140 nM
CC(C)n1c(C2CCN(CC3CCN(C(=O)/C=C/c4ccc(Cl)c(Cl)c4)CC3)CC2)nc2ccccc21	1030 nM
CN(C)CCNC(=O)N1CCCN(c2ncnc3cc(-c4ccccc4)sc23)CC1	790 nM
CCC(C)NS(=O)(=O)c1ccc2nc(Nc3ccc(C)c(Cl)c3)n(C3CCCCC3)c2c1 (configuration not stated)	510 nM
O=C(CN1CCC2(CCC1=O)CC(=O)c1ccccc1O2)NCCN1CCOCC1 (configuration not stated)	220 nM
CC(C)(C)OC(=O)NCc1ccc(Nc2nnc(-c3ccc(OCC(=O)NC[C@@H]4CC[C@H]5C[C@@H]4C5(C)C)c([N+](=O)[O-])c3)o2)cc1	910 nM
Cc1ncc(CN2CCC(C(=O)Nc3ccc(-c4nc5ccccc5o4)cc3)CC2)s1	390 nM
c1ccc(-n2cncn2)cc1	590 nM
CCN(CC)S(=O)(=O)c1cc(-c2ccc(=O)n(CC(=O)c3ccc(C)cc3)n2)ccc1C	890 nM
CC(Cc1ccc(Oc2ccccc2)cc1)NCC(O)c1cccc(C(F)(F)F)c1 (configuration not stated)	670 nM
COc1ccc(CNCc2ccc(F)cc2)cc1-c1ccc(S(=O)(=O)NCCN2CCCC2)s1	710 nM

Structure (SMILES)	IC50
Cc1nc(Nc2ccc(F)cc2)nc(N2CCc3cc(O)ccc3C2C)c1C (configuration not stated)	750 nM
Cc1cc(-c2cnc(N)c(-c3ccc(N4CCN(C)CC4)cc3)c2)cc(C)c1O	1170 nM
COc1ccc(N(c2nc(-c3cc(Cl)ccc3Cl)cs2)C2CCNC2)cc1 (configuration not stated)	870 nM
NC1=NC(c2ccccc2)(c2ccccc2)C(=O)N1CCCCc1ccccn1	1260 nM
O=C(Nc1cc(C(F)(F)F)cc(C(F)(F)F)c1)N1CCC(CCN2CCC(c3c[nH]c4ccccc34)CC2)CC1	1260 nM
CC(C)C[C@@H]1C(=O)N[C@H](C2Cc3ccccc3C2)C(=O)N1[C@@H](C(=O)O)c1ccc(F)cc1F	840 nM
CC(C)(C)c1ccc(CN2CCC(NC(=O)c3ccc(-c4ccccc4F)s3)CC2)cc1	1200 nM
CC(=O)N1CCN(c2ccc(NC(=O)c3oc(-c4ccccc4)nc3C(F)(F)F)cn2)CC1	840 nM
Cc1cccc2[nH]c(-c3ccc(-c4ccc(C(=O)NCCN5CCCC5)cc4)s3)nc12	900 nM
C[C@@H](CC1CCCCC1)NCc1cccc(NS(=O)(=O)c2ccc(O)c(-c3ccno3)c2)c1	380 nM
C=CCn1cc(C2CCN(CCCCNC(=O)c3sc(-c4ccc(C(F)(F)F)cc4)nc3CO)CC2)c2cc(OC)ccc21	1040 nM
Cc1cccc2[nH]c(-c3ccc(-c4cccc(CN5CCC(C(N)=O)CC5)c4)s3)nc12	1260 nM
O=c1[nH]c2c(cc1CNC1CCCCC1)c(-c1ccc(F)cc1)nn2-c1ccccc1	800 nM
COc1ccc2nccc(NN=Cc3cccnc3)c2c1	500 nM
CCCCCN1CCC(NS(=O)(=O)c2cccc(C(=O)Nc3ccc(Cl)cc3)c2)CC1	920 nM
Cc1ccc(Nc2nc(-c3ccccn3)cs2)nc1	750 nM
CN(C)CCCN(C)C(=O)c1cc2cc(-c3ccccc3)ccc2n1S(=O)(=O)c1ccccc1	460 nM
COc1ccc2nccc([C@@H](O)CN3CCC(NCc4ccc5cccc(O)c5n4)CC3)c2n1	910 nM
